Data published in ChEMBL document CHEMBL1201862, “PubChem BioAssay data set” (2004).
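Dose response: 5 concentrations. Exposure: 48 h. Format: 96-well plates. Endpoint: linear interpolation; highest concentration if not reached. Abbreviation: GI50, concentration required for 50% inhibition of growth.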 The source made the active and inactive calls. Rule as the data show it: active = GI50 up to about 1.1 µM and inactive = higher.

Experiments:
Assay in all cases: NCI-60 cell line screen, 48 h
[1] = system: 786-0
[2] = system: ACHN
[3] = system: CAKI-1
[4] = system: DU-145
[5] = system: EKVX
[6] = system: HCC 2998
[7] = system: HL-60
[8] = system: IGROV-1
[9] = system: LOX IMVI
[10] = system: MCF7
[11] = system: NCI-H226
[12] = system: NCI-H23
[13] = system: NCI-H460
[14] = system: NCI-H522
[15] = system: NCI/ADR-RES
[16] = system: OVCAR-8
[17] = system: PC-3
[18] = system: SF-295
[19] = system: SK-MEL-2
[20] = system: SK-OV-3

Row | Structure (SMILES) | GI50 [1] | GI50 [2] | GI50 [3] | GI50 [4] | GI50 [5] | GI50 [6] | GI50 [7] | GI50 [8] | GI50 [9] | GI50 [10] | GI50 [11] | GI50 [12] | GI50 [13] | GI50 [14] | GI50 [15] | GI50 [16] | GI50 [17] | GI50 [18] | GI50 [19] | GI50 [20]
1 | CN1CC[C@]23c4c5ccc(O)c4OC2c2[nH]ncc2C[C@H]3[C@H]1C5 (stereo not given in full) | > 100 µM (inactive) | > 100 µM (inactive) | > 100 µM (inactive) | > 100 µM (inactive) | > 100 µM (inactive) | > 100 µM (inactive) | > 100 µM (inactive) | > 100 µM (inactive) | > 100 µM (inactive) | > 100 µM (inactive) | > 100 µM (inactive) | > 100 µM (inactive) | > 100 µM (inactive) | > 100 µM (inactive) | > 100 µM (inactive) | > 100 µM (inactive) | > 100 µM (inactive) | > 100 µM (inactive) | > 100 µM (inactive) | > 100 µM (inactive)
2 | CCc1nc(N)nc(N)c1-c1ccc(Cl)c(/N=C/N(C)C)c1 | 22.8 µM (inactive) | 38.8 µM (inactive) | 53.8 µM (inactive) | 81.1 µM (inactive) | > 87.3 µM (inactive) | 41.2 µM (inactive) | > 39.7 µM (inactive) | 27.1 µM (inactive) | 19.2 µM (inactive) | 57.8 µM (inactive) | > 100 µM (inactive) | 28.6 µM (inactive) | 5.22 µM (inactive) | 24.1 µM (inactive) | > 93.1 µM (inactive) | 44.4 µM (inactive) | 25.9 µM (inactive) | 41.1 µM (inactive) | > 100 µM (inactive) | > 100 µM (inactive)
3 | CCCOC(=O)c1cc(O)c(O)c(O)c1 [PROPYL GALLATE] | 41.4 µM (inactive) | 46.2 µM (inactive) | > 100 µM (inactive) | 30.3 µM (inactive) | 27.7 µM (inactive) | 45.1 µM (inactive) | > 100 µM (inactive) | 31.3 µM (inactive) | 16.1 µM (inactive) | 42 µM (inactive) | 17.7 µM (inactive) | > 100 µM (inactive) | 30.1 µM (inactive) | 8.2 µM (inactive) | 26.5 µM (inactive) | 27.9 µM (inactive) | 18.7 µM (inactive) | 47.5 µM (inactive) | 28.1 µM (inactive) | > 100 µM (inactive)
4 | N#C/C(=C1C=C(Br)/C(=N\O)C=C\1Cl)c1cccc2ccccc12 | 3.34 µM (inactive) | 11 µM (inactive) | 3.48 µM (inactive) | 3.31 µM (inactive) | 10.8 µM (inactive) | 5.77 µM (inactive) | 2.3 µM (inactive) | 6.24 µM (inactive) | 4.29 µM (inactive) | 4.93 µM (inactive) | 2.17 µM (inactive) | 13.2 µM (inactive) | 5.16 µM (inactive) | 2.52 µM (inactive) | 4.01 µM (inactive) | 6.37 µM (inactive) | 2.89 µM (inactive) | 3.12 µM (inactive) | 2.48 µM (inactive) | 5.33 µM (inactive)
5 | O=C1c2ccccc2-[n+]2ccc3c([nH]c4ccccc43)c21 [FASCAPLYSIN CHLORIDE] | 0.427 µM (active) | 0.557 µM (active) | 0.659 µM (active) | 1.15 µM (inactive) | 0.274 µM (active) | 0.19 µM (active) | 0.404 µM (active) | 0.196 µM (active) | 0.245 µM (active) | 0.184 µM (active) | 0.964 µM (active) | 0.31 µM (active) | 0.263 µM (active) | 0.49 µM (active) | 1.21 µM (inactive) | 0.439 µM (active) | 0.269 µM (active) | 0.232 µM (active) | 0.226 µM (active) | 1.56 µM (inactive)
6 | Cc1ccc(S(=O)(=O)Oc2nc3ccccc3nc2N(S(=O)(=O)c2ccc(C)cc2)S(=O)(=O)c2ccc(C)cc2)cc1 | 38.6 µM (inactive) | 45.9 µM (inactive) | 72.4 µM (inactive) | 53.8 µM (inactive) | 30.3 µM (inactive) | 0.625 µM (active) | 33 µM (inactive) | 92.3 µM (inactive) | > 100 µM (inactive) | 84.1 µM (inactive) | 22.5 µM (inactive) | 47.8 µM (inactive) | 28.7 µM (inactive) | 74 µM (inactive) | 40.2 µM (inactive) | 52.2 µM (inactive) | 38.4 µM (inactive) | 30.3 µM (inactive) | 81.8 µM (inactive) | > 100 µM (inactive)
7 | O=C1c2cccc3cccc(c23)C(=O)N1CCCNCCCNCCCCNCCCNCCCN1C(=O)c2cccc3cccc(c23)C1=O | 1.07 µM (active) | 3.97 µM (inactive) | 12.9 µM (inactive) | 3.66 µM (inactive) | 5.48 µM (inactive) | 3.52 µM (inactive) | 0.27 µM (active) | 1.96 µM (inactive) | 2.55 µM (inactive) | 0.449 µM (active) | 4.46 µM (inactive) | 2.12 µM (inactive) | 1.9 µM (inactive) | 0.789 µM (active) | 14.7 µM (inactive) | 4.93 µM (inactive) | 3.23 µM (inactive) | 7.45 µM (inactive) | 4.01 µM (inactive) | 12.9 µM (inactive)
8 | CC[N+]1(C)CCC(O)(c2ccc(Cl)c(Cl)c2)C(C(=O)c2ccc(Cl)c(Cl)c2)C1 (stereo not given) | > 10 µM (inactive) | > 10 µM (inactive) | > 10 µM (inactive) | > 10 µM (inactive) | > 10 µM (inactive) | > 10 µM (inactive) | > 10 µM (inactive) | > 10 µM (inactive) | > 10 µM (inactive) | > 10 µM (inactive) | > 10 µM (inactive) | > 10 µM (inactive) | > 10 µM (inactive) | 3.08 µM (inactive) | > 10 µM (inactive) | > 10 µM (inactive) | > 10 µM (inactive) | > 10 µM (inactive) | > 10 µM (inactive) | > 10 µM (inactive)
9 | O=c1c(C(c2ccc3c(c2)Cc2ccccc2-3)c2c(O)oc3ccccc3c2=O)c(O)oc2ccccc12 | 25.9 µM (inactive) | 23.9 µM (inactive) | 20.3 µM (inactive) | 33.6 µM (inactive) | 48.9 µM (inactive) | 18.7 µM (inactive) | 29.2 µM (inactive) | 39.3 µM (inactive) | 26.3 µM (inactive) | 22.9 µM (inactive) | > 100 µM (inactive) | 29.4 µM (inactive) | 25.9 µM (inactive) | 21.9 µM (inactive) | > 100 µM (inactive) | > 100 µM (inactive) | 37.8 µM (inactive) | 25.2 µM (inactive) | 31.9 µM (inactive) | 31.3 µM (inactive)
10 | CCOC(=O)CCC(NC(=O)c1ccc(OCc2ccc3nc(-c4ccccc4)c(Cl)nc3c2)cc1)C(=O)OCC (stereo not given) | 16.6 µM (inactive) | 26.9 µM (inactive) | > 69 µM (inactive) | > 31.6 µM (inactive) | 19.9 µM (inactive) | > 31.6 µM (inactive) | 7.29 µM (inactive) | 22.1 µM (inactive) | > 100 µM (inactive) | 27.4 µM (inactive) | 19.2 µM (inactive) | 17.2 µM (inactive) | > 31.6 µM (inactive) | 17.4 µM (inactive) | 16.7 µM (inactive) | 14.2 µM (inactive) | 7.4 µM (inactive) | 22 µM (inactive) | 12.4 µM (inactive) | 52.1 µM (inactive)
11 | CCCCCCN(CCCCCC)C(=S)N/N=C(\C)c1ccccn1 | 0.971 µM (active) | 0.703 µM (active) | 0.836 µM (active) | 1.28 µM (inactive) | 0.531 µM (active) | 1.61 µM (inactive) | 0.0767 µM (active) | 0.955 µM (active) | 0.838 µM (active) | 1.53 µM (inactive) | 0.622 µM (active) | 1.24 µM (inactive) | 1.09 µM (active) | 0.527 µM (active) | 1.37 µM (inactive) | 0.815 µM (active) | 0.265 µM (active) | 1.53 µM (inactive) | 1.06 µM (active) | 1.4 µM (inactive)
12 | O=C1Nc2nccnc2C(=O)N2CCC[C@@H]12 | > 100 µM (inactive) | > 100 µM (inactive) | > 100 µM (inactive) | > 100 µM (inactive) | > 100 µM (inactive) | > 100 µM (inactive) | > 100 µM (inactive) | > 100 µM (inactive) | > 100 µM (inactive) | > 100 µM (inactive) | > 100 µM (inactive) | > 100 µM (inactive) | > 100 µM (inactive) | > 100 µM (inactive) | > 100 µM (inactive) | > 100 µM (inactive) | > 100 µM (inactive) | > 100 µM (inactive) | > 100 µM (inactive) | > 100 µM (inactive)
13 | COC(=O)c1cc(C)ccc1CC(Cc1cccc(C)c1)C(=O)OC (stereo not given) | > 100 µM (inactive) | > 100 µM (inactive) | > 100 µM (inactive) | 92.9 µM (inactive) | 59.2 µM (inactive) | > 100 µM (inactive) | 34.7 µM (inactive) | > 100 µM (inactive) | > 100 µM (inactive) | > 100 µM (inactive) | > 100 µM (inactive) | 38.5 µM (inactive) | > 100 µM (inactive) | 74.6 µM (inactive) | 95.9 µM (inactive) | > 100 µM (inactive) | > 100 µM (inactive) | > 100 µM (inactive) | 47.3 µM (inactive) | 4.06 µM (inactive)
14 | COc1ccc(C2c3c(-c4ccccc4)nn(-c4ccccc4)c3Oc3ncn(N)c(=N)c32)cc1OC (stereo not given) | 1.67 µM (inactive) | 1.86 µM (inactive) | 1.86 µM (inactive) | 2.89 µM (inactive) | 1.91 µM (inactive) | 1.74 µM (inactive) | 2.62 µM (inactive) | 1.51 µM (inactive) | 1.69 µM (inactive) | 1.84 µM (inactive) | 2.46 µM (inactive) | 2.54 µM (inactive) | 1.71 µM (inactive) | 2.21 µM (inactive) | 2.21 µM (inactive) | 2.1 µM (inactive) | 1.95 µM (inactive) | 2.05 µM (inactive) | 1.83 µM (inactive) | 6.53 µM (inactive)
